Results as given in US20210300859A1, “ROSMARINIC ACID DERIVATIVE OR SALT THEREOF” (KAO CORPORATION, priority 2018, published 2021).

Molecular target: T1, human TRPV4 (Homo sapiens, UniProt Q9HBA0)
T1 construct: expressed in transfected cells; host or cells: HeLa cells, transient transfection with a pcDNA 3.1 Directional TOPO vector
Experiment: Evaluation of TRPV4 activity-inhibiting action: intracellular calcium ion influx rate in human TRPV4-expressing HeLa cells stimulated with GSK1016790a (Fluo 4)
Assay type: cell-based
Conditions: for Intracellular Ca^2+ influx rate (%): GSK + DMSO defined as 100%, n = 3, Mean ± S.E.; for calcium ion influx into cells by a TRPV4 agonist (result in words): concentration-dependent, 100 and 300 μM, vs GSK1016790a + DMSO, Dunnett's test
Experimental: HeLa cells were cultured using a DMEM/F12 medium containing 10% fetal bovine serum. The HeLa cells were seeded in a T-75 cell culture flask at 5×10^5 cells/flask. The cells were cultured for 3 days, were then transfected with the human TRPV4 gene expression vector (8 μg) produced in the above (2) using TransIT-HeLaMONSTER Transfection Kit, and were cultured for 1 day.
The cells were detached with Detachin, were seeded in a 96-well optical bottom plate containing a DMEM/F12 medium containing 10% fetal bovine serum at a cell density of 1.5×10^4 cells/90 μL/well, and were further cultured for 1 day.
The intracellular calcium ion influx rate was measured using Calcium Kit II-fluo 4. Loading buffer containing Fluo 4-AM and Hanks' balanced salt solution were mixed at 1:1 and were then added to the human TRPV4-expressing cells produced in the above (3) at 180 μL/well, followed by incubation at 37° C. for 1 hour. Subsequently, the fluorescence intensity (excitation wavelength: 488 nm, fluorescence wavelength: 524 nm) was measured every 2 seconds at 37° C. using a fluorescence plate reader FDSS3000 (Hamamatsu Photonics K.K.). 30 seconds after the start of the measurement, GSK1016790a as a TRPV4 agonist and the 4-O-methyl-rosmarinic acid or 3,4′-di-O-methyl-rosmarinic acid solution prepared in the above Manufacturing Example as a sample were each diluted with Hanks' balanced salt solution, and a mixture solution thereof (mixed immediately before the addition) was added at 20 μL/well. The change in fluorescence intensity was measured every 2 seconds for 300 seconds. GSK1016790a was added to give a final concentration of 3 nM.
In addition, as a positive control for TRPV4 activity inhibition, HC067047, which is a TRPV4 antagonist, was added at a final concentration of 10 μM. 4-O-Methyl-rosmarinic acid, 3,4′-di-O-methyl-rosmarinic acid, GSK1016790a, and HC067047 were all used by dissolving in dimethyl sulfoxide (DMSO).
The TRPV4 activity of a sample was calculated by the following expression, and the intracellular calcium ion influx rate due to the treatment with a TRPV4 agonist, GSK1016790a, was defined as 100%.
Intracellular calcium ion influx rate (%)=[(F max/F0)−(F max C2/F0C2)]/[(F max C1/F0C1)−(F max C2/F0C2)]×100
F max: Maximum fluorescence intensity of the well containing GSK1016790a and a sample in the period from 0 to 300 seconds after the start of the measurement,
F max C1: Maximum fluorescence intensity of the well containing GSK1016790a and a solvent in the period from 0 to 300 seconds after the start of the measurement,
F max C2: Maximum fluorescence intensity of the well containing only a solvent in the period from 0 to 300 seconds after the start of the measurement,
F0: Fluorescence intensity of the well of F max immediately after the start of the measurement,
F0C1: Fluorescence intensity of the well of F max C1 immediately after the start of the measurement, and
F0C2: Fluorescence intensity of the well containing only a solvent immediately after the start of the measurement.
The intracellular calcium ion influx rate (each group, n=3) when a sample was added was compared to that when GSK1016790a and a solvent (DMSO) were added and was examined by a Dunnett's test. […] The results are expressed as the mean value (Mean)±standard error (S.E.).

[1] = sample 100 μM with GSK1016790a 3 nM
[2] = sample 300 μM with GSK1016790a 3 nM

T1 sequence (Q9HBA0 whole entry): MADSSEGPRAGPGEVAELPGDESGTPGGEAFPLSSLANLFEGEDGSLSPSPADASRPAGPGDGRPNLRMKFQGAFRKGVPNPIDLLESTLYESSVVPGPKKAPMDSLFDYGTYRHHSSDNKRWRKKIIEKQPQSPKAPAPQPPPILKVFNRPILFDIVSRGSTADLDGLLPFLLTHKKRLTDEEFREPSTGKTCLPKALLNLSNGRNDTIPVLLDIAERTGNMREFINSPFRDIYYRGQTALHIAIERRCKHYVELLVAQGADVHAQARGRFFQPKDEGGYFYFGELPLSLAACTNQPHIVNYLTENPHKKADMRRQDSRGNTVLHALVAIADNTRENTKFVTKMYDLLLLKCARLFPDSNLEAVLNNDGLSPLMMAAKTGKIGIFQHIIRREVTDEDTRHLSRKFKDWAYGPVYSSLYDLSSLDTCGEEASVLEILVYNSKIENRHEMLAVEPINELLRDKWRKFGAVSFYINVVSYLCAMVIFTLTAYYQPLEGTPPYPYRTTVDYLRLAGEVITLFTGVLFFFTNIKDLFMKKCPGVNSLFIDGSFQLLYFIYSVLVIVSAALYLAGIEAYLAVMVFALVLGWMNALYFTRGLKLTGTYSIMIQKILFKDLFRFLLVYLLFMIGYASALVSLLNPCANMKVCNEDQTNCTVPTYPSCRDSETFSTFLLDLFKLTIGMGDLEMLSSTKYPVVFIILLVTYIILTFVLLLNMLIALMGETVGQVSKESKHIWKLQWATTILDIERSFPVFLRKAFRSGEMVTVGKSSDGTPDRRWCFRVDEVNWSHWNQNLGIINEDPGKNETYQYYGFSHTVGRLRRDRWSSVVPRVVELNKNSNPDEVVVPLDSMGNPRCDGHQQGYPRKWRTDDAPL

Row | Structure (SMILES) | Intracellular Ca^2+ influx rate (%) (sample 10 μM with GSK1016790a 3 nM) | calcium ion influx into cells by a TRPV4 agonist (result in words) | Intracellular Ca^2+ influx rate (%) [1] | Intracellular Ca^2+ influx rate (%) [2]
1 | Cc1c(C(=O)Nc2cccc(C(F)(F)F)c2)cc(-c2ccccc2)n1CCCN1CCOCC1 [HC067047, reference compound] | 2.46 ± 0.14 (P < 0.001) % | – | – | –
2 | COc1ccc(/C=C/C(=O)OC(Cc2ccc(O)c(OC)c2)C(=O)O)cc1O (stereo not shown) [3,4′-DiMe-RA, (E)-3-(4-hydroxy-3-methoxyphenyl)-2-{[3-(3-hydroxy-4-methoxyphenyl)acryloyl]oxy}propionic acid] | – | significantly decreased | 78.81 ± 1.73 (P < 0.001) % | 71.25 ± 5.52 (P < 0..001) %
3 | COc1ccc(CC(OC(=O)/C=C/c2ccc(O)c(O)c2)C(=O)O)cc1O (stereo not shown) [4-Me-RA, (E)-3-(3-hydroxy-4-methoxyphenyl)-2-{[3-(3,4-dihydroxyphenyl)acryloyl]oxy}propionic acid] | – | significantly decreased | 92.65 ± 0.89 (N.S.) % | 82.90 ± 3.04 (P < 0.01) %
